Assays:
IDH1 R132H enzyme = IDH1 R132H enzyme (Homo sapiens (Human), UniProt O75874, R132H); assay: Mutant IDH1 R132H biochemical assay; details: NADPH consumption, luminescent readout; 1.5 nM enzyme, 250 μM α-KG, 1 μM NADPH, 30 minutes, 32° C.; test range 0.002-10 μM
Protocol: mIDH1 catalyzes the NADPH-dependent reduction of alpha-ketoglutarate (α-KG) to (2R)-2-hydroxyglutarate (2-HG). NADPH consumption was measured by luminescent readout.
The biochemical reactions were performed at 32° C. in 384-well plates using a reaction volume of 41 μl and the following assay buffer conditions: 50 mM Tris pH 7.5, 100 mM NaCl, 20 mM MgCl2, 0.05% BSA, 0.01% Brij, 1 μM NADPH, and 250 μM α-KG. […] Test compounds were used in a concentration range between 0.002 and 10 μM. The final DMSO concentration was 2.4%.
The reaction was incubated for 30 minutes, then 40 μl of detection mix (0.75 μg/ml Luciferase, 0.02 U/ml Oxidoreductase, 4 μg/ml FMN, 2 μl/ml Decanal/Ethanol, 50 mM Tris pH 7.5, 0.5% Glycerin, 0.01% Tween-20, 0.05% BSA) was added. Luminescence was measured on a luminescent reader (10 seconds measuring time, 1 second integration period, 30% sensitivity). The decrease in luminescence is proportional to mIDH1 activity. IC50 values are determined by interpolation from plots of relative luminescence versus inhibitor concentration.

[1] = target: mutated isocitrate dehydrogenase (mIDH) protein overexpressed in LN229 R132H cells (Homo sapiens (Human), UniProt O75874, R132H); assay: Mutant IDH1 cellular assay (2-HG in medium of LN229 R132H cells); format: cell-based; details: 24 hours, fluorescence readout
Protocol: Mutant IDH1 Cellular Assay
Levels of (2R)-2-hydroxyglutarate (2HG) were measured in medium of a cell line with overexpression of mutated isocitrate dehydrogenase (mIDH) protein. mIDH catalyzes the NADPH-dependent reduction of alpha-ketoglutarate to 2-HG. Cells (LN229 R132H, Mohrenz et al., Apoptosis (2013) 18:1416-1425) were grown in DMEM containing 10% FCS. They were harvested by trypsin and seeded into 96-well plates. Cells were incubated overnight at 37° C. in 5% CO2. The next day test compounds were added to each cell well. The final concentration of DMSO was 0.1% and DMSO controls were included. The plates were then placed in an incubator for 24 hours.
2-HG was measured according to Balss et al. (Acta Neuropathol (2012) 124: 883-891). Briefly, HClO4 was added to each well and the plates were centrifuged. Aliquots are removed and incubated with hydroxyglutarate dehydrogenase (HGDH), diaphorase, NAD+, and resazurin. The conversion of resazurin to resorufin was detected by fluorescence spectroscopy at Ex 540 nm Em 600 nm. The increase in fluorescence is proportional to 2-HG production. IC50 values are determined by interpolation from plots of relative fluorescence vs inhibitor concentration.

IDH1 R132H enzyme, sequence (O75874 whole entry R132H): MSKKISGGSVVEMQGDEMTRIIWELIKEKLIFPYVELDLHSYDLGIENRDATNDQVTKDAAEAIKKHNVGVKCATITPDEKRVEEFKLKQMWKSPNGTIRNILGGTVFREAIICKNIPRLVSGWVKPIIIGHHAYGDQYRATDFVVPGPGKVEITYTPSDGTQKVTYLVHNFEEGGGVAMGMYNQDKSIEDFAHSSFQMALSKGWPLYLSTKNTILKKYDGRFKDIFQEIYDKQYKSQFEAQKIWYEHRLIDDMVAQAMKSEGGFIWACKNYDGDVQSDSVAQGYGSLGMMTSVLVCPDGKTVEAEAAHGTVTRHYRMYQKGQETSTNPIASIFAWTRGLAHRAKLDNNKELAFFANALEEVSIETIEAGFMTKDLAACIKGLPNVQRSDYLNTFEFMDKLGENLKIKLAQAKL
mutated isocitrate dehydrogenase (mIDH) protein overexpressed in LN229 R132H cells, sequence (O75874 whole entry R132H): as above

Row | IC50 (IDH1 R132H enzyme) [µM] | IC50 [1] [µM] | Compound
1 | 1.5 | – | COC(=O)c1cccc(-c2ccc3c(c2)nc(Nc2ccc(OC(F)(F)F)cc2)n3[C@H]2C[C@@H](C)CC(C)(C)C2)c1 (racemic) [Example 2-15, (±) Methyl 3-(2-{[4-(trifluoromethoxy)phenyl]amino}-1-[(cis)-3,3,5-trimethylcyclohexyl]-1H-benzimidazol-5-yl)benzoate]
2 | 0.44 | – | C[C@H]1C[C@@H](n2c(Nc3ccc(OC(F)(F)F)cc3)nc3cc(-c4ccc(C(N)=O)cc4)ccc32)CC(C)(C)C1 (stereo in doubt) [Example 2-17]
3 | 0.14 | 2 | Cc1n[nH]c(C)c1-c1ccc2c(c1)nc(Nc1ccc(SC(F)(F)F)cc1)n2[C@@H]1C[C@H](C)CC(C)(C)C1 (stereo in doubt) [Example 2-10]
4 | 0.29 | – | C[C@H]1C[C@@H](n2c(Nc3ccc(OC(F)(F)F)cc3)nc3cc(-c4cn(C)nc4C(F)(F)F)ccc32)CC(C)(C)C1 (stereo in doubt) [Example 2-16]
5 | 0.13 | – | Cc1nnc(-c2ccc3c(c2)nc(Nc2ccc(OC(F)(F)F)cc2)n3C2CC(C)(C)CC(C)(C)C2)o1 [Example 2-25, 5-(5-Methyl-1,3,4-oxadiazol-2-yl)-1-(3,3,5,5-tetramethylcyclohexyl)-N-[4-(trifluoromethoxy)phenyl]-1H-benzimidazol-2-amine]
6 | 0.12 | 0.9 | Cc1noc(C)c1-c1ccc2c(c1)nc(Nc1ccc(OC(F)(F)F)cc1)n2[C@H]1C[C@@H](C)CC(C)(C)C1 (racemic) [Example 2-1, (±) 5-(3,5-dimethyl-1,2-oxazol-4-yl)-N-[4-(trifluoromethoxy)phenyl]-1-[(cis)-3,3,5-trimethylcyclohexyl]-1H-benzimidazol-2-amine]
7 | 0.24 | – | CCOc1noc(C)c1-c1ccc2c(c1)nc(Nc1ccc(OC(F)(F)F)cc1)n2[C@H]1C[C@@H](C)CC(C)(C)C1 (racemic) [Example 2-35, (±) 5-(3-ethoxy-5-methyl-1,2-oxazol-4-yl)-N-[4-(trifluoromethoxy)phenyl]-1-[(cis)-3,3,5-trimethylcyclohexyl]-1H-benzimidazol-2-amine]
8 | 0.22 | 10 | Cc1nc(-c2ccc3c(c2)nc(Nc2ccc(OC(F)(F)F)cc2)n3C2CC(C)(C)CC(C)(C)C2)no1 [Example 2-26, 5-(5-Methyl-1,2,4-oxadiazol-3-yl)-1-(3,3,5,5-tetramethylcyclohexyl)-N-[4-(trifluoromethoxy)phenyl]-1H-benzimidazol-2-amine]
9 | 0.18 | – | Cc1cc(-c2ccc3c(c2)nc(Nc2ccc(OC(F)(F)F)cc2)n3[C@H]2C[C@@H](C)CC(C)(C)C2)cc(C)c1O (racemic) [Example 2-34, (±) 2,6-dimethyl-4-(2-{[4-(trifluoromethoxy)phenyl]amino}-1-[(cis)-3,3,5-trimethylcyclohexyl]-1H-benzimidazol-5-yl)phenol]
10 | 4 | – | COC(=O)c1ccc(-c2ccc3c(c2)nc(Nc2ccc(OC(F)(F)F)cc2)n3[C@H]2C[C@@H](C)CC(C)(C)C2)cc1 (racemic) [Example 2-18, (±) Methyl 4-(2-{[4-(trifluoromethoxy)phenyl]amino}-1-[(cis)-3,3,5-trimethylcyclohexyl]-1H-benzimidazol-5-yl)benzoate]
11 | 1.3 | – | COc1cc(-c2ccc3c(c2)nc(Nc2ccc(OC(F)(F)F)cc2)n3[C@@H]2C[C@H](C)CC(C)(C)C2)ccn1 (stereo in doubt) [Example 2-14]
12 | 0.46 | – | C[C@@H]1C[C@H](n2c(Nc3ccc(OC(F)(F)F)cc3)nc3cc(-c4ccc(C(=O)O)cc4)ccc32)CC(C)(C)C1 (racemic) [Example 2-3, (±) 4-(2-{[4-(trifluoromethoxy)phenyl]amino}-1-[(cis)-3,3,5-trimethylcyclohexyl]-1H-benzimidazol-5-yl)benzoic acid]
13 | 0.67 | – | C[C@@H]1C[C@H](n2c(Nc3ccc(OC(F)(F)F)cc3)nc3cc(-c4cc(F)c(O)c(F)c4)ccc32)CC(C)(C)C1 (racemic) [Example 2-33, (±) 2,6-difluoro-4-(2-{[4-(trifluoromethoxy)phenyl]amino}-1-[(cis)-3,3,5-trimethylcyclohexyl]-1H-benzimidazol-5-yl)phenol]
14 | 1.8 | – | C[C@H]1C[C@H](n2c(Nc3ccc(OC(F)(F)F)cc3)nc3cc(-c4nnn[nH]4)ccc32)CC(C)(C)C1 (racemic) [Example 2-27, (±) 5-(1H-tetrazol-5-yl)-N-[4-(trifluoromethoxy)phenyl]-1-[(trans)-3,3,5-trimethylcyclohexyl]-1H-benzimidazol-2-amine]
15 | – | 4 | C[C@H]1C[C@@H](n2c(Nc3ccc(OC(F)(F)F)cc3)nc3cc(-c4ccnn4C)ccc32)CC(C)(C)C1 (stereo in doubt) [Example 2-20]

Continued, compound first:

Row | Compound | IC50 (IDH1 R132H enzyme) [µM] | IC50 [1] [µM]
16 | C[C@@H]1C[C@H](n2c(Nc3ccc(OC(F)(F)F)cc3)nc3cc(-c4cn(C)nc4C(F)(F)F)ccc32)CC(C)(C)C1 (stereo in doubt) [Example 2-16-2] | 0.78 | –
17 | Cc1noc(C)c1-c1ccc2c(c1)nc(Nc1ccc(SC(F)(F)F)cc1)n2[C@H]1C[C@@H](C)CC(C)(C)C1 (stereo in doubt) [Example 2-21-2] | 0.29 | 2.5
18 | C[C@H]1C[C@@H](n2c(Nc3ccc(OC(F)(F)F)cc3)nc3cc(-c4cn(C)nc4C(F)(F)F)ccc32)CC(C)(C)C1 (stereo in doubt) [Example 2-16-1] | 7.8 | –
19 | Cc1noc(C)c1-c1ccc2c(c1)nc(Nc1ccc(SC(F)(F)F)cc1)n2[C@@H]1C[C@H](C)CC(C)(C)C1 (stereo in doubt) [Example 2-21-1] | 1.1 | 10
20 | Cc1n[nH]c(C)c1-c1ccc2c(c1)nc(Nc1ccc(SC(F)(F)F)cc1)n2[C@@H]1C[C@H](C)CC(C)(C)C1 (stereo in doubt) [Example 2-10-1] | 0.3 | 10
21 | Cc1cc(-c2ccc3c(c2)nc(Nc2ccc(OC(F)(F)F)cc2)n3[C@@H]2C[C@H](C)CC(C)(C)C2)n(C)n1 (stereo in doubt) [Example 2-12-1] | 4.3 | –
22 | C[C@@H]1C[C@H](n2c(Nc3ccc(OC(F)(F)F)cc3)nc3cc(-c4cnn(C)c4)ccc32)CC(C)(C)C1 (stereo in doubt) [Example 2-13-2] | 1 | –
23 | Cc1n[nH]c(C)c1-c1ccc2c(c1)nc(Nc1ccc(OC(F)(F)F)cc1)n2[C@@H]1C[C@H](C)CC(C)(C)C1 (stereo in doubt) [Example 2-5-1] | 0.67 | –
24 | Cc1noc(C)c1-c1ccc2c(c1)nc(Nc1ccc(OC(F)(F)F)cc1)n2[C@H]1C[C@@H](C)CC(C)(C)C1 (single isomer, unassigned) [Example 2-1-1, 5-(3,5-dimethyl-1,2-oxazol-4-yl)-N-[4-(trifluoromethoxy)phenyl]-1-[(cis)-3,3,5-trimethylcyclohexyl]-1H-benzimidazol-2-amine] | 0.24 | –
25 | C[C@H]1C[C@@H](n2c(Nc3ccc(OC(F)(F)F)cc3)nc3cc(-c4cnn(C)c4)ccc32)CC(C)(C)C1 (stereo in doubt) [Example 2-13-1] | 0.24 | –
26 | Cc1noc(C)c1-c1ccc2c(c1)nc(Nc1ccc(OC(F)(F)F)cc1)n2[C@H]1C[C@@H](C)CC(C)(C)C1 (single isomer, unassigned) [Example 2-1-2, 5-(3,5-dimethyl-1,2-oxazol-4-yl)-N-[4-(trifluoromethoxy)phenyl]-1-[(cis)-3,3,5-trimethylcyclohexyl]-1H-benzimidazol-2-amine] | 0.07 | –
27 | Cc1cc(-c2ccc3c(c2)nc(Nc2ccc(OC(F)(F)F)cc2)n3[C@H]2C[C@@H](C)CC(C)(C)C2)n(C)n1 (stereo in doubt) [Example 2-12-2] | 1.6 | –

Source: patent publication US10137110B2, “1-cyclohexyl-2-phenylaminobenzimidazoles as mIDH1 inhibitors for the treatment of tumors” (Bayer Pharma Aktiengesellschaft, priority 2014, dated 2018)
